In patent US20250230193A1, “CYCLIC COMPOUND HAVING SELECTIVE KRAS INHIBITORY EFFECT ON HRAS AND NRAS” (CHUGAI SEIYAKU KABUSHIKI KAISHA, priority 2022, published 2025):
Read-outs that look alike come from different tables or passages of the source. *1 amine or outer side, *2 acyl side, *3 side chain or, on linkers, in order; H or OH if unused. Where a SMILES comes first, the peptide text is derived from it. Bridges are numbered along the chain shown (N, C = ends). [ ]: non-standard residue; d: D form. The star is where a group is joined. X6 = CC(C)(C)CCN([C@@H](Cc1ccc(C(F)(F)F)cc1)C(=O)[*:2])[*:1]; dhPhe(3-Cl,4-CF3) = N[C@H](CCc1ccc(C(F)(F)F)c(Cl)c1)C(=O)O; hPhe(3-Cl-4-CF3) = N[C@@H](CCc1ccc(C(F)(F)F)c(Cl)c1)C(=O)O; X3 = C=CCN([C@H](Cc1ccccc1)C(=O)[*:2])[*:1]; X5 = CCCN([C@H](C(=O)[*:2])C1CCCC1)[*:1]; NMeGly(cPent) = CN[C@H](C(=O)O)C1CCCC1; NMeNle(5-ene) = C=CCC[C@H](NC)C(=O)O; NMeD = CN[C@@H](CC(=O)O)C(=O)O; NMeL = CN[C@@H](CC(C)C)C(=O)O; Morpholide = C1CN(*)CCO1; NMeA = CN[C@@H](C)C(=O)O; Ac5c = NC1(C(=O)O)CCCC1; Aze = O=C(O)[C@@H]1CCN1; Sar = CNCC(=O)O

Columns and labels:
[1] = target: GDP-bound NRAS wild-type protein (Homo sapiens, UniProt P01111); assay: Binding to NRAS by surface plasmon resonance (SPR), Single Cycle Kinetics; details: SPR
Sequence of GDP-bound NRAS wild-type protein (P01111 whole entry): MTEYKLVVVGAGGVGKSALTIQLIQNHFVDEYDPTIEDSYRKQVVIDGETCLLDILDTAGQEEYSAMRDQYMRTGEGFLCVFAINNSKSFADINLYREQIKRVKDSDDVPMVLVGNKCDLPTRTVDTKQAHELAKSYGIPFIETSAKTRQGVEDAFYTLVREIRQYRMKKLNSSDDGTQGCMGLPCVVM

[2] = target: GDP-bound HRAS wild-type protein (Homo sapiens, UniProt P01112); assay: Binding to HRAS by surface plasmon resonance (SPR), Single Cycle Kinetics; details: SPR
Sequence of GDP-bound HRAS wild-type protein (P01112 whole entry): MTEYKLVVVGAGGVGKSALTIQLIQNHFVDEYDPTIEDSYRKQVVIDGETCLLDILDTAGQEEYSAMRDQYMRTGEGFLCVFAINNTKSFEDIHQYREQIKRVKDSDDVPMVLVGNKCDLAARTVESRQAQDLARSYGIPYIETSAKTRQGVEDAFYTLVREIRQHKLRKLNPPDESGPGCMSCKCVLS

[3] = system: human lung cancer strain NCI-H441
[4] = read-out: NCI-H441 IC50, NCI-H441 cells, 4 days, CellTiter-Glo
[5] = KD ratio, GDP-bound NRAS wild-type vs GDP-bound KRAS wild-type
[6] = KD ratio, GDP-bound HRAS wild-type vs GDP-bound KRAS wild-type

Structure (SMILES) | IC50 [3] [nM] | NRAS/KRAS (ratio of KD value for NRAS to KD value for KRAS) [1, 5] | HRAS/KRAS (ratio of KD value for HRAS to KD value for KRAS) [2, 6] | further results
CCCN1C(=O)[C@@H]2CCN2C(=O)[C@H](C)N(C)C(=O)[C@H]([C@@H](C)CC)NC(=O)[C@H](CC(C)C)N(C)C(=O)C[C@@H](C(=O)N2CCOCC2)N(C)C(=O)[C@H](C2CCCC2)N(C)C(=O)C2(CCCC2)NC(=O)[C@@H]2CCCN2C(=O)[C@H](CCc2ccc(C(F)(F)F)c(Cl)c2)NC(=O)CN(C)C(=O)[C@@H]1C1CCCC1 [PP0054] ([NMeL]I[NMeA][Aze][X5][Sar][hPhe(3-Cl-4-CF3)]P[Ac5c][NMeGly(cPent)][NMeD]-Morpholide; lactam N-11) |  |  |  | NRAS/KRAS (ratio of KD for GDP-bound NRAS wild-type to KD for KRAS) [1]: C (A compound having a KD ratio of 0.1 or more and less than 3 is denoted as C); HRAS/KRAS (ratio of KD for GDP-bound HRAS wild-type to KD for KRAS) [2]: C (A compound having a KD ratio of 0.1 or more and less than 3 is denoted as C); IC50 [3, 4]: 82 nM
CC[C@H](C)[C@@H]1NC(=O)[C@H](CC(C)C)N(C)C(=O)C[C@@H](C(=O)N2CCOCC2)N(C)C(=O)[C@H](C2CCCC2)N(C)C(=O)C2(CCCC2)NC(=O)[C@@H]2CCCN2C(=O)[C@H](CCc2ccc(C(F)(F)F)c(Cl)c2)NC(=O)CN(C)C(=O)[C@H](Cc2ccc(C(F)(F)F)cc2)N(CCC(C)(C)C)C(=O)CN(C)C(=O)CN(C)C1=O [PP0127] ([NMeL]I[Sar][Sar][X6][Sar][hPhe(3-Cl-4-CF3)]P[Ac5c][NMeGly(cPent)][NMeD]-Morpholide; lactam N-11) | 25.3 |  |  | NRAS/KRAS (ratio of KD for GDP-bound NRAS wild-type to KD for KRAS) [1]: C (A compound having a KD ratio of 0.1 or more and less than 3 is denoted as C); HRAS/KRAS (ratio of KD for GDP-bound HRAS wild-type to KD for KRAS) [2]: C (A compound having a KD ratio of 0.1 or more and less than 3 is denoted as C)
C=CCC[C@H]1C(=O)N(CC=C)[C@H](Cc2ccccc2)C(=O)N(C)CC(=O)N[C@H](CCc2ccc(C(F)(F)F)c(Cl)c2)C(=O)N2CCC[C@H]2C(=O)NC2(CCCC2)C(=O)N(C)[C@@H](C2CCCC2)C(=O)N(C)[C@H](C(=O)N2CCOCC2)CC(=O)N(C)[C@@H](CC(C)C)C(=O)N[C@@H]([C@@H](C)CC)C(=O)N(C)CC(=O)N1C [PP0599] ([NMeL]I[Sar][NMeNle(5-ene)][X3][Sar][dhPhe(3-Cl,4-CF3)]P[Ac5c][NMeGly(cPent)][NMeD]-Morpholide; lactam N-11) | 2800 |  |  | NRAS/KRAS (ratio of KD value with respect to GDP-bound NRAS wild-type protein to KD value with respect to KRAS) [1]: C (A compound having a KD ratio of 0.1 or more and less than 3 is denoted as C); HRAS/KRAS (ratio of KD value with respect to GDP-bound HRAS wild-type protein to KD value with respect to KRAS) [2]: B (a compound having 3 or more and less than 10 is denoted as B)
CC[C@H](C)C1NC(=O)[C@H](CC(C)C)N(C)C(=O)C[C@@H](C(=O)N(C)C)N(C)C(=O)[C@H](C2CCCC2)N(C)C(=O)C2(CCCC2)NC(=O)C2CCCN2C(=O)[C@@H](CCc2ccc(C(F)(F)F)c(Cl)c2)NC(=O)CN(C)C(=O)[C@@H](Cc2ccc(C)cc2)N2CC/C=C\CCN(CC2=O)C(=O)CN(C)C1=O (some centres unmarked) [PP0618] | 79.1 |  |  | NRAS/KRAS (ratio of KD value with respect to GDP-bound NRAS wild-type protein to KD value with respect to KRAS) [1]: C (A compound having a KD ratio of 0.1 or more and less than 3 is denoted as C); HRAS/KRAS (ratio of KD value with respect to GDP-bound HRAS wild-type protein to KD value with respect to KRAS) [2]: C (A compound having a KD ratio of 0.1 or more and less than 3 is denoted as C)
CC[C@H](C)[C@@H]1NC(=O)[C@H](CC(C)C)N(C)C(=O)C[C@@H](C(=O)N(C)C)N(C)C(=O)[C@H](C2CCCC2)N(C)C(=O)C2(CCCC2)NC(=O)C2CCCN2C(=O)[C@H](CCc2ccc(C(F)(F)F)c(Cl)c2)NC(=O)CN(C)C(=O)[C@H](Cc2ccc(C(F)(F)F)cc2)N2CC/C=C\COC[C@@H](C2=O)N(C)C(=O)CN(C)C1=O (some centres unmarked) [PP0622] | 330 |  |  | NRAS/KRAS (ratio of KD value with respect to GDP-bound NRAS wild-type protein to KD value with respect to KRAS) [1]: B (a compound having 3 or more and less than 10 is denoted as B); HRAS/KRAS (ratio of KD value with respect to GDP-bound HRAS wild-type protein to KD value with respect to KRAS) [2]: B (a compound having 3 or more and less than 10 is denoted as B)
CC[C@H](C)[C@@H]1NC(=O)[C@H](CC(C)C)N(C)C(=O)C[C@@H](C(=O)N(C)C)N(C)C(=O)[C@H](C2CCCC2)N(C)C(=O)C2(CCCC2)NC(=O)[C@@H]2CCCN2C(=O)[C@H](CCc2ccc(C(F)(F)F)c(Cl)c2)NC(=O)CN(C)C(=O)[C@H](Cc2ccc(C)cc2)N2C/C=C\COC[C@@H](C2=O)N(C)C(=O)CN(C)C1=O [PP0627] | 98.3 |  |  | 
CC[C@H](C)[C@@H]1NC(=O)[C@H](CC(C)C)N(C)C(=O)C[C@@H](C)N(C)C(=O)[C@H](C2CCCC2)N(C)C(=O)C2(CCC2)NC(=O)[C@@H]2CCCN2C(=O)[C@H](CCc2cc(F)c(C(F)(F)F)c(F)c2)NC(=O)CN(C)C(=O)[C@H](Cc2ccc(C(F)(F)F)cc2)N2CC/C=C\C[C@@H](C2=O)N(C)C(=O)CN(C)C1=O [PP1099] | 68.1 |  |  | NRAS/KRAS (ratio of KD value with respect to NRAS to KD value with respect to KRAS) [1, 5]: B (a compound having 3 or more and less than 10 is denoted as B); HRAS/KRAS (ratio of KD value with respect to HRAS to KD value with respect to KRAS) [2, 6]: A (a compound having 10 or more and less than 20 is denoted as A)
CC[C@H](C)[C@@H]1NC(=O)[C@H](CC2CCCC2)N(C)C(=O)C[C@@H](C(=O)N(C)C)N(C)C(=O)[C@H](C2CCCC2)N(C)C(=O)C2(CCC2)NC(=O)[C@@H]2[C@@H](OCC(F)F)CCN2C(=O)[C@H](CCc2cc(F)c(C(F)(F)F)c(F)c2)NC(=O)CN(C)C(=O)[C@H](Cc2ccc(C)cc2)N2CC/C=C\C[C@H](C2=O)N(C)C(=O)CN(C)C1=O [PP1536] | 24.8 |  |  | NRAS/KRAS (ratio of KD value for GDP-bound NRAS wild-type protein to KD value for KRAS) ([1]; KD ratio class): A (a compound having 10 or more and less than 20 is denoted as A); HRAS/KRAS (ratio of KD value for GDP-bound HRAS wild-type protein to KD value for KRAS) ([2]; KD ratio class): B (a compound having 3 or more and less than 10 is denoted as B)
CCO[C@@H]1C[C@H]2C(=O)NC3(CCC3)C(=O)N(C)[C@@H](C3CCCC3)C(=O)N(C)[C@@H](C(C)C)CC(=O)N(C)[C@@H](CC3CC3)C(=O)N[C@@H]([C@@H](C)CC)C(=O)N(C)CC(=O)N(C)[C@H]3C/C=C\CCN(C3=O)[C@@H](Cc3ccc(C(F)(F)F)cc3)C(=O)N(C)CC(=O)N[C@@H](CCc3cc(F)c(C(F)(F)F)c(F)c3)C(=O)N2C1 [PP1596] |  |  |  | IC50 [3, 4]: 18.1 nM
CC[C@H](C)[C@@H]1NC(=O)[C@H](CC2CC2)N(C)C(=O)C[C@@H](C(=O)N(C)C)N(C)C(=O)[C@H](C2CCCC2)N(C)C(=O)C2(CC(C)(C)C2)NC(=O)[C@@H]2C[C@H](C)CN2C(=O)[C@H](CCc2cc(F)c(C(F)(F)F)c(F)c2)NC(=O)CN(C)C(=O)[C@H](Cc2ccc(C(F)(F)F)cc2)N2CC/C=C\C[C@@H](C2=O)N(C)C(=O)CN(C)C1=O [PP1660] | 4.3 | A (a compound having 10 or more and less than 20 is denoted as A) | A (a compound having 10 or more and less than 20 is denoted as A) | 
CCC[C@H]1C(=O)N[C@@H]([C@@H](C)CC)C(=O)N(C)CC(=O)N(C)[C@H]2C/C=C\CCN(C2=O)[C@@H](Cc2ccc(C(F)(F)F)cc2)C(=O)N(C)CC(=O)N[C@@H](CCc2ccc(C(F)(F)F)c(OC)c2)C(=O)N2C[C@H](OCC)C[C@H]2C(=O)NC2(CC(C)(C)C2)C(=O)N(C)[C@@H](C2CCCC2)C(=O)N(C)[C@H](C(=O)N(C)CC)CC(=O)N1C [PP1676] | 5 | A (a compound having 10 or more and less than 20 is denoted as A) | A (a compound having 10 or more and less than 20 is denoted as A) | 
C#CC[C@H]1C(=O)N[C@@H]([C@@H](C)CC)C(=O)N(C)CC(=O)N(C)[C@H]2C/C=C\CCN(C2=O)[C@@H](Cc2ccc(C(F)(F)F)cc2)C(=O)N(C)CC(=O)N[C@@H](CCc2ccc(C(F)(F)F)c(OC)c2)C(=O)N2C[C@H](OCC)C[C@H]2C(=O)NC2(CC(C)(C)C2)C(=O)N(C)[C@@H](C2CCCC2)C(=O)N(C)[C@H](C(=O)N(C)C)CC(=O)N1C [PP1677] | 3.4 | A (a compound having 10 or more and less than 20 is denoted as A) | A (a compound having 10 or more and less than 20 is denoted as A) | 
CCO[C@@H]1C[C@H]2C(=O)NC3(CC(C)(C)C3)C(=O)N(C)[C@@H](C3CCCC3)C(=O)N(C)[C@H](C(=O)N(C)CC)CC(=O)N(C)[C@@H](CC3CC3)C(=O)N[C@@H]([C@@H](C)CC)C(=O)N(C)CC(=O)N(C)[C@H]3C/C=C\CCN(C3=O)[C@@H](Cc3ccc(C(F)(F)F)cc3)C(=O)N(C)CC(=O)N[C@@H](CCc3ccc(C(F)(F)F)c(OC)c3)C(=O)N2C1 [PP1678] | 5.6 | A (a compound having 10 or more and less than 20 is denoted as A) | B (a compound having 3 or more and less than 10 is denoted as B) | 
CCCN(C)C(=O)[C@@H]1CC(=O)N(C)[C@@H](COC)C(=O)N[C@@H]([C@@H](C)CC)C(=O)N(C)CC(=O)N(C)[C@H]2C/C=C\CCN(C2=O)[C@@H](Cc2ccc(C(F)(F)F)cc2)C(=O)N(C)CC(=O)N[C@@H](CCc2cc(F)c(C(F)(F)F)c(F)c2)C(=O)N2C[C@H](OCC)C[C@H]2C(=O)NC2(CCC2)C(=O)N(C)[C@@H](C2CCCC2)C(=O)N1C [PP1706] | 6.7 | A (a compound having 10 or more and less than 20 is denoted as A) | A (a compound having 10 or more and less than 20 is denoted as A) | 
CC[C@H](C)[C@@H]1NC(=O)[C@H](C2CC2)N(C)C(=O)C[C@@H](C(=O)N(C)C)N(C)C(=O)[C@H](C2CCCC2)N(C)C(=O)C2(CCCC2)N(C)C(=O)[C@@H]2CCCN2C(=O)[C@H](CCc2cc(F)c(C(F)(F)F)c(F)c2)NC(=O)CN(C)C(=O)[C@H](Cc2ccc(C)cc2)N2CC/C=C\C[C@@H](C2=O)N(C)C(=O)CN(C)C1=O [PP1809] | 22.4 | A (a compound having 10 or more and less than 20 is denoted as A) | B (a compound having 3 or more and less than 10 is denoted as B) | 
